From patent US20030194750A1, “Methods for treatment of diseases where GSK 3-beta is desired, and methods to identify compounds usefule for that” (priority 2002, published 2003)
Read-outs that look alike come from different tables or passages of the source.

Experiments:
[1] = molecular target: T1, GST-cGB-PDE5 fusion protein (Homo sapiens, UniProt O76074); assay: cGMP binding assay with GST-cGB-PDE5 fusion protein; settings: for competition with cGMP binding at high concentration: 100 μM compound vs cGMP 2 μM
T1 construct: made in house; host or cells: E. coli BL21 (DE3)
T1 sequence (O76074 46-539 limits assumed): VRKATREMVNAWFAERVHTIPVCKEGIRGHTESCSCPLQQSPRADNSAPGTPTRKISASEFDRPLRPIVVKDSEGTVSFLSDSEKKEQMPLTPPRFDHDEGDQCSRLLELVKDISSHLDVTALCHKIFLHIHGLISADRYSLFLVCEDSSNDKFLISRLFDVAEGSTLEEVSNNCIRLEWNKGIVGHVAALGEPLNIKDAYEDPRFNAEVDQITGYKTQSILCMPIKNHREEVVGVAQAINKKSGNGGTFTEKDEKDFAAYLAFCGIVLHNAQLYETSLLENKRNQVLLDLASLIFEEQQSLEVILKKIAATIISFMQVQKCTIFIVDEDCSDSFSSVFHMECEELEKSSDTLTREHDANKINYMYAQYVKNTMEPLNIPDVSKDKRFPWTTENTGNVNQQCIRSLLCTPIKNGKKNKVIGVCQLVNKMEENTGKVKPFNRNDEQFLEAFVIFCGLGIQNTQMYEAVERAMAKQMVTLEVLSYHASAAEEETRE
Description: 5′-3′, Inc. kits for total RNA followed by oligo (dT) column purification of mRNA are used with HT-29 cells. […] It is then cloned into pGEX-5X-3 glutathione-S-transferase (GST) fusion vector (Pharmacia Biotech) with tac promoter, and EcoRI and XhoI cut sites. The fusion vector is then transfected into E. Coli BL21 (DE3) bacteria (Invitrogen). The transfected BL21 bacteria is grown to log phase, and then IPTG is added as an inducer. The induction is carried at 20° C. for 24 hrs. The bacteria are harvested and lysed. The soluble cell lysate is incubated with GSH conjugated Sepharose 4B (GSH-Sepharose 4B). The GST-cGB-PDE5 fusion protein can bind to the GSH-Sepharose beads, and the other proteins are washed off from beads with excessive cold PBS.
Then, the mixture is transferred to Brandel MB-24 cell harvester with GF/B as the filter membrane followed by 2 washes with 10 mL of cold 5 mM potassium buffer( pH 6.8). The membranes are then cut out and transferred to scintillation vials followed by the addition of 1 mL of H2O and 6 mL of Ready Safe™ liquid scintillation cocktail to each vial. The vials are counted on a Beckman LS 6500 scintillation counter.
The quenching by filter membrane or other debris are also calibrated.

[2] = tested on: PKG1β; assay: Western blot of PKG1β in SW480 cells; assay type: cell-based, human; settings: various concentrations, 48 hours
Description: (§1) 50 μg protein/lane were analyzed by Western blot analysis using specific anti-PKG1β and anti-GSK3β-phospho-ser9 antibodies.

[3] = tested on: GSK3β; assay: Western blot of GSK3β-phospho-ser9 in SW480 cells; assay type: cell-based, human; settings: various concentrations, 48 hours, vs 0 concentration
Description: as §1

[4] = tested on: PKG; assay: PKG activity assay on lysates of drug-treated SW480 colon cancer cells (32P phosphorylation of PDE5/GST substrate); assay type: cell-based, human; settings: SW480 cells treated 48 hrs; exisulind 200, 400, 600 μM, E4021 0.1, 1, 10 μM; assay with and without added cGMP
Description: A compound that inhibits all these types of PDE is desirable, accordingly. Below, we provide examples of such PDE-inhibiting compounds.
SW 480 is known to contain the APC mutation. About 5 million SW480 cells in RPMI 5% serum are added to each of 8 dishes:
2-10 cm dishes - - - 30 μL DMSO vehicle control (without drug),
3-10 cm dishes - - - 200 μM, 400 μM, 600 μM exisulind in DMSO, and
The dishes are incubated for 48 hrs at 37° C. in 5% CO2 incubator.
The liquid media are aspirated from the dishes (the cells will attach themselves to the dishes). The attached cells are washed in each dish with cold PBS, and 200 μL cell lysis buffer (i.e., 50 mM Tris-HCl, 1% NP-40, 150 mM NaCl, 1 mM EDTA, 1 mM Na3VO4, 1 mM NaF, 500 μM IBMX with proteinase inhibitors) is added to each dish. Immediately after the cell lysis buffer is added, the lysed cells are collected by scraping the cells off each dish. The cell lysate from each dish is transferred to a microfuge tube, and the microfuge tubes are incubated at 4° C. for 15 minutes while gently agitating the microfuge tubes to allow the cells to lyse completely. […]
For each control or drug cell lysate sample to be evaluated, the reaction is started by adding phosphorylation buffer containing 10 μCi ^32P-γ-ATP solution (200 μM ATP, 4.5 mM MgCl; 5 mM KH2PO4; 5 mM K2HPO4;) to each mixture. […]

[5] = molecular target: native bovine PDE5 (Bos taurus, UniProt Q28156); settings: read-out: Kd of cGMP binding; cited from earlier work

## CCCCOC1C2OP(=O)(O)OCC2OC1n1cnc2c(N)ncnc21 (stereo not shown) [2′-O-butyl-cAMP]
[1]; 3H-cGMP 2 μM, 22° C., 1 hour
  competition with cGMP for the cGMP binding sites: did not compete with cGMP in binding

## CCCCOC1C2OP(=O)(O)OCC2OC1n1cnc2c(=O)[nH]c(N)nc21 (stereo not shown) [2′-O-butyl-cGMP]
[1]; 3H-cGMP 2 μM, 22° C., 1 hour
  competition with cGMP for the cGMP binding sites: did not compete with cGMP in binding

## COc1cc(/C=C2/C(C)=C(CC(=O)NCc3ccccc3)c3cc(F)ccc32)cc(OC)c1OC [Compound A, 1H-indene-3-acetamide, 5-fluoro-2-methyl-N-(phenylmethyl)-1-[(3,4,5-trimethoxyphenyl)methylene]-, (1Z)]
[2]
  PKG1 induction: PKG1 induction in a dose-dependent manner
[3]
  GSK3β inactivation by Ser9 phosphorylation: inactivated in vivo by phosphorylation of its Ser9

## Nc1ncnc2c1ncn2[C@@H]1O[C@@H]2COP(=O)(O)O[C@H]2[C@H]1O [Cyclic AMP]
[1]
  competition with cGMP for the cGMP binding sites: did not compete with cGMP in binding

## O=c1[nH]cnc2c1ncn2[C@@H]1O[C@@H]2COP(=O)(O)O[C@H]2[C@H]1O [Cyclic IMP]
[1]
  competition with cGMP binding at high concentration: can partially compete with cGMP

## Nc1nc2c(nc(Br)n2[C@@H]2O[C@@H]3COP(=O)(O)O[C@H]3[C@H]2O)c(=O)[nH]1 [Example 8-bromo-cGMP, 8-bromo-cGMP]
[1]
  competition with cGMP binding at high concentration: can partially compete with cGMP

## O=C([O-])C1CCN(c2nc(NCc3ccc4c(c3)OCO4)c3cc(Cl)ccc3n2)CC1.[Na+] [Example E4021]
[4]
  PKG activity relative to control: do not exhibit PKG activation relative to control
[1]; 3H-cGMP 2 μM, 22° C., 1 hour
  competition with cGMP for the cGMP binding sites: None of the PDE5 inhibitors showed any competition with cGMP in binding

## CSc1ccc(/C=C2/C(C)=C(CC(=O)O)c3cc(F)ccc32)cc1 [Sulindac sulfide]
[1]; 3H-cGMP 2 μM, 22° C., 1 hour
  competition with cGMP for the cGMP binding sites: None of the PDE5 inhibitors showed any competition with cGMP in binding

## Nc1ccn([C@@H]2O[C@@H]3COP(=O)(O)O[C@H]3[C@H]2O)c(=O)n1 [cCMP, cyclic CMP]
[1]; 3H-cGMP 2 μM, 22° C., 1 hour
  competition with cGMP for the cGMP binding sites: did not compete with cGMP in binding

## Nc1nc2c(ncn2[C@@H]2O[C@@H]3COP(=O)(O)O[C@H]3[C@H]2O)c(=O)[nH]1 [cGMP, cyclic 3′,5′-guanosine monophosphate]
[5]
  Kd: 1.3 µM
[1]
  binding of cGMP to the fusion protein: specifically bound to GST-cGB-PDE5 protein
[1]; read-out: Kd of cGMP binding, two cGMP binding sites
  Kd: 1.6 ± 0.2 µM

## O=c1ccn([C@@H]2O[C@@H]3COP(=O)(O)O[C@H]3[C@H]2O)c(=O)[nH]1 [cUMP, cyclic UMP]
[1]; 3H-cGMP 2 μM, 22° C., 1 hour
  competition with cGMP for the cGMP binding sites: did not compete with cGMP in binding

## CCCOc1ccccc1-c1nc2nn[nH]c2c(=O)[nH]1 [zaprinast]
[1]; 3H-cGMP 2 μM, 22° C., 1 hour
  competition with cGMP for the cGMP binding sites: None of the PDE5 inhibitors showed any competition with cGMP in binding
